Experimental data from US20250213627A1, “RECOMBINANT MICROORGANISM-BASED METHODS AND COMPOSITIONS FOR TREATMENT OF DISEASE” (Baylor College of Medicine, priority 2021, published 2025).
“Also recorded” adds a separate entry of the source.

Experiments:
[1] = system: anti-ShK-235 IgG; assay: Immunogenicity ELISA on sera of CIA rats; type: in vivo, rat; conditions: sera at end of 21-day CIA trial
Protocol: To test if ShK-235 produced by LrS235 is immunogenic, the sera of rats were assessed at the end of the 21-day CIA trial shown in FIG. 8 for anti-ShK-235 IgG by ELISA assay. Plates coated with collagen II and HsTX1[R14A] were used as controls. HsTX1[R14A] is another peptide blocker of Kv1.3 with no sequence or structural homology to ShK-235.
Immunogenicity assays in rats with CIA. High-protein binding 96-well microplates (3855, ThermoFisher, MA, US) were coated overnight with 10 μg/ml of either porcine collagen II (20031, Chondrex, Woodinville, WI), ShK-235, or HsTX1[R14A], dissolved in PBS. Non-specific binding sites were blocked with PBS+5% skimmed milk and washed with PBS+0.05% Tween 20 before adding serum from the CIA rats, diluted in PBS. After washes, anti-rat IgG antibodies conjugated to horseradish peroxidase (1 μg/ml; Pierce catalog 31471, lot UA280036) were added to all the wells. One-step TMB-ELISA (34028, ThermoFisher, MA, US) was used to detect absorbance on a plate reader at 650 nm.

[2] = system: DTH reaction mediated by antigen-specific TEM lymphocytes; assay: Active delayed-type hypersensitivity (DTH) reaction against ovalbumin in the ear; type: in vivo, rat
Protocol: Then, it was assessed if LrS235 gavage could reduce a delayed-type hypersensitivity (DTH) reaction in the ear of rats, a local autoinflammation mediated by antigen-specific TEM lymphocytes. […] In contrast, treatment with LrGusA, capsules filled with ShK-235 or gelatin, and supernatants from the culture of the LrS235 had no effects on inflammation.
Induction and monitoring of an active delayed-type hypersensitivity reaction. Male and female rats were immunized in the flanks with 200 μl of a 1:1 emulsion of ovalbumin (Sigma, St. Louis, MO) in complete Freund's adjuvant (Difco/Becton Dickinson, Franklin Lakes, NJ)(25). After 7 days, under isoflurane anesthesia, the rats were challenged with ovalbumin dissolved in saline in the pinna of one ear; the collateral ear was injected with saline (49). Rats received either a single subcutaneous injection of 0.1 mg/kg ShK-235 or P6N vehicle, a single oral gavage of 1×10^9 cfus LrS235 or LrGusA, oral gavage of 1 ml supernatant of LrS235, or a capsule filled with ShK-235 or gelatin immediately before the ear challenge. The DTH reaction was measured 24 hours post-challenge as the thickness of the ear using a spring-loaded micrometer (Mitutoyo, Japan) and ear inflammation was determined by comparing the ear thickness of the ovalbumin-challenged with the saline-challenged ear from each (49). The animals were euthanized after the ear measurements.

CC[C@H](C)[C@@H]1NC(=O)[C@H](CO)NC(=O)[C@H](Cc2c[nH]cn2)NC(=O)[C@H](CCCCN)NC(=O)[C@@H]2CSSC[C@@H]3NC(=O)[C@H]([C@@H](C)O)NC(=O)[C@H](CCCCN)NC(=O)[C@H](CCCNC(=N)N)NC(=O)[C@H](CSSC[C@H](NC(=O)[C@H](CCCNC(=N)N)NC(=O)[C@H](CO)NC(=O)[C@H](CCCCN)NC(=O)[C@@H]4CCCN4C(=O)[C@H]([C@@H](C)CC)NC(=O)[C@H]([C@@H](C)O)NC(=O)[C@H](CC(=O)O)NC(=O)[C@H]([C@@H](C)CC)NC(=O)[C@@H](NC(=O)[C@H](CO)NC(=O)[C@@H](N)CCCNC(=N)N)CSSC[C@@H](C(=O)N[C@@H](C)C(=O)O)NC(=O)[C@H]([C@@H](C)O)NC(=O)CNC3=O)C(=O)N[C@@H]([C@@H](C)O)C(=O)N[C@@H](C)C(=O)N[C@@H](Cc3ccccc3)C(=O)N[C@@H](CCCCN)C(=O)N2)NC(=O)[C@H](Cc2ccccc2)NC(=O)[C@H](CO)NC(=O)[C@H](CC(C)C)NC(=O)[C@H](CCCNC(=N)N)NC(=O)[C@H](Cc2ccc(O)cc2)NC(=O)[C@H](CCCCN)NC1=O [ShK-235]
Anti-ShK-235 IgG titers / immunogenicity [1]: very low titers; also recorded: not immunogenic | Effect on ear inflammation ([2]; oral enteric-coated capsule filled with ShK-235): no effects | Reduction of ear inflammation compared with vehicle control ([2]; single subcutaneous injection 0.1 mg/kg): 58%
